Experimental data from patent US8765730B2 (Hoffmann-La Roche Inc, priority 2010, dated 2014).

Biological target: T1, human GPBAR1 receptor (Homo sapiens, UniProt Q8TDU6)
T1 construct: expressed in transfected cells
T1 sequence (Q8TDU6 1-330): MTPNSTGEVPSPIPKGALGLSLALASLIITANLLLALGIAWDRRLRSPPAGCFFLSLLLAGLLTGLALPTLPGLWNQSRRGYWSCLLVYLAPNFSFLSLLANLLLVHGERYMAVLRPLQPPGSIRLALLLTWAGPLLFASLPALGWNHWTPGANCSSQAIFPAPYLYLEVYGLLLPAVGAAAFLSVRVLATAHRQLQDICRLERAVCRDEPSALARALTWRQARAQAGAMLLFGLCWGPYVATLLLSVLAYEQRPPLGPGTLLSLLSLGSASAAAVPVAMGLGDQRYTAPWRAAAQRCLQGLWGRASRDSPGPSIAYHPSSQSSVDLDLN
Experiment: functional cAMP assay in CHO-dhfr(minus) cells expressing human GPBAR1 receptors
Type: cell-based
Details: human EC50, functional cAMP assay, 30 min at 30° C.
In short: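 Agonist cAMP read-out: stable GPBAR1 CHO-dhfr− clone, 30 min compound exposure at 30° C following 30 min IBMX (1 mM) preincubation in Krebs Ringer bicarbonate. Time-resolved energy-transfer detection gives EC50; parental CHO cells serve as counter-screen.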

Structure (SMILES) | EC50 [nM]
CCn1cc(/C(CC(c2ccc(Br)cc2)c2ccccc2C)=N\O)ccc1=O (stereo not shown) [Example 165, 5-{3-(4-Bromo-phenyl)-1-[(Z)-hydroxyimino]-3-o-tolyl-propyl}-1-ethyl-1H-pyridin-2-one] | 550
Cc1ccccc1C(C/C(=N\O)c1cnccn1)c1ccc(Br)cc1 (stereo not shown) [Example 156, (E)-3-(4-Bromo-phenyl)-1-pyrazin-2-yl-3-o-tolyl-propan-1-one oxime] | 6140
Cc1ccccc1C(C/C(=N\O)c1ccc(=O)n(C)c1)c1ccc(C(=O)N[C@@H](CO)C(C)C)cc1 (single isomer, unassigned) [Example 306] | 511
Cc1ccccc1C(C/C(=N\O)c1cc(Cl)nc(Cl)c1)c1ccc(Br)cc1 (stereo not shown) [Example 120, (E)-3-(4-Bromo-phenyl)-1-(2,6-dichloro-pyridin-4-yl)-3-o-tolyl-propan-1-one oxime] | 184
CS(=O)(=O)c1ccc(-c2cccc(C(C/C(=N\O)c3ccncc3)c3ccccc3)c2)cc1 (stereo not shown) [Example 24, (E)-3-(4′-Methanesulfonyl-biphenyl-3-yl)-3-phenyl-1-pyridin-4-yl-propan-1-one oxime] | 2190
Cc1cc(/C(C[C@H](c2ccc(N3CCC(CO)CC3)cc2)c2ccccc2C)=N/O)ccn1 [Example 269, (E,R)-3-[4-(4-Hydroxymethyl-piperidin-1-yl)-phenyl]-1-(2-methyl-pyridin-4-yl)-3-o-tolyl-propan-1-one oxime] | 2
Cc1ccccc1C(CC(=NO)c1cc(F)ncc1Cl)c1ccc(Br)cc1 (racemic) [Example 121, 3-(4-Bromo-phenyl)-1-(5-chloro-2-fluoro-pyridin-4-yl)-3-o-tolyl-propan-1-one oxime] | 24
CN1CCC(N(C)C(=O)c2ccc(C(C/C(=N\O)c3ccc(=O)n(C)c3)c3ccccc3Cl)cc2F)CC1 (stereo not shown) [Example 218, (E)-4-(1-(2-Chlorophenyl)-3-(hydroxyimino)-3-(1-methyl-6-oxo-1,6-dihydropyridin-3-yl)propyl)-2-fluoro-N-methyl-N-(1-methylpiperidin-4-yl)benzamide] | 1640
CS(=O)(=O)c1ccc(-c2ccc(C(C/C(=N\O)c3ccncc3)c3ccccc3)cc2)cc1 (stereo not shown) [Example 20, (E)-3-(4′-Methanesulfonyl-biphenyl-4-yl)-3-phenyl-1-pyridin-4-yl-propan-1-one oxime] | 66
Cc1ccccc1[C@H](C/C(Cc1ccncc1)=N/O)c1ccc(Br)cc1 [Example 262, (Z,R)-4-(4-bromophenyl)-1-(pyridin-4-yl)-4-o-tolylbutan-2-one oxime] | 278
CNS(=O)(=O)c1ccc(-c2ccc(C(C/C(=N\O)c3ccncc3)c3ccccc3)cc2)cc1 (stereo not shown) [Example 21, 4′-{3-[(E)-Hydroxyimino]-1-phenyl-3-pyridin-4-yl-propyl}-biphenyl-4-sulfonic acid methylamide] | 303
C=CCC(C/C(=N\O)c1ccc(=O)n(C)c1)c1ccc(Br)cc1 (stereo not shown) [Example 176, 5-{3-(4-Bromo-phenyl)-1-[(E)-hydroxyimino]-hex-5-enyl}-1-methyl-1H-pyridin-2-one] | 369
Cc1cc(F)ccc1C(C/C(=N\O)c1ccc(=O)n(C)c1)c1ccc(-c2ccc(N)cc2)cc1 (stereo not shown) [Example 259, 5-{3-(4′-Amino-biphenyl-4-yl)-3-(4-fluoro-2-methyl-phenyl)-1-[(E)-hydroxyimino]-propyl}-1-methyl-1H-pyridin-2-one] | 50
ON=C(CC1c2ccccc2-c2ccccc21)c1ccncc1 (racemic) [Example 61, 2-(9H-Fluoren-9-yl)-1-pyridin-4-yl-ethanone oxime] | 4590

More lines, now with the values ahead:

EC50 [nM] | Structure (SMILES)
2000 | Cc1cc(Cl)ccc1[C@H](C/C(Cc1ccccn1)=N\O)c1ccc(Br)cc1 [Example 362, (E,R)-4-(4-bromo-phenyl)-4-(4-chloro-2-methyl-phenyl)-1-pyridin-2-yl-butan-2-one oxime]
168 | Cc1cc(Cl)ccc1[C@H](C/C(=N\O)c1cc[n+]([O-])c(C)c1)c1ccc(Br)cc1 [Example 384, (R,E)-4-(3-(4-Bromophenyl)-3-(4-chloro-2-methylphenyl)-1-(hydroxyimino)propyl)-2-methylpyridine 1-oxide]
349 | Cn1cc(/C(C[C@H](c2ccc(-c3ccc(C(=O)O)s3)cc2)c2ccc(Cl)cc2F)=N/O)ccc1=O [Example 468, 5-{4-[(−)-1-(4-Chloro-2-fluoro-phenyl)-3-[(E)-hydroxyimino]-3-(1-methyl-6-oxo-1,6-dihydro-pyridin-3-yl)-propyl]-phenyl}-thiophene-2-carboxylic acid]
5 | Cc1cc(F)ccc1C(C/C(=N\O)c1ccc(=O)n(C)c1)c1ccc(-c2ccc(S(N)(=O)=O)cc2)cc1 (stereo not shown) [Example 401, 4′-[1-(4-Fluoro-2-methyl-phenyl)-3-[(E)-hydroxyimino]-3-(1-methyl-6-oxo-1,6-dihydro-pyridin-3-yl)-propyl]-biphenyl-4-sulfonic acid amide]
130 | Cc1ccccc1C(C/C(=N\O)c1ccc(=O)n(C)c1)c1ccc(C(=O)NCC(O)C(F)(F)F)cc1 (stereo not shown) [Example 309, (E)-4-(3-(Hydroxyimino)-3-(1-methyl-6-oxo-1,6-dihydropyridin-3-yl)-1-o-tolylpropyl)-N-(3,3,3-trifluoro-2-hydroxypropyl)benzamide]
110 | Cc1cc(Cl)ccc1C(C/C(=N\O)c1ccc(=O)n(C)c1)c1ccc(N2CCCC2=O)cc1 (stereo not shown) [Example 355, 5-{3-(4-Chloro-2-methyl-phenyl)-1-[(E)-hydroxyimino]-3-[4-(2-oxo-pyrrolidin-1-yl)-phenyl]-propyl}-1-methyl-1H-pyridin-2-one]
54 | Cc1cc(F)ccc1C(C/C(=N\O)c1ccc(=O)n(C)c1)c1ccc(-c2ccc(NC(=O)CCC(=O)O)cc2)cc1 (stereo not shown) [Example 392, N-{4′-[1-(4-Fluoro-2-methyl-phenyl)-3-[(E)-hydroxyimino]-3-(1-methyl-6-oxo-1,6-dihydro-pyridin-3-yl)-propyl]-biphenyl-4-yl}-succinamic acid]
92 | Cc1ncsc1C(C/C(=N\O)c1ccc(=O)n(C)c1)c1ccc(Br)cc1 (stereo not shown) [Example 330, (E)-5-(3-(4-Bromophenyl)-1-(hydroxyimino)-3-(4-methylthiazol-5-yl)propyl)-1-methylpyridin-2(1H)-one]
49 | Cc1cc(C(=O)O)ccc1-c1ccc(C(C/C(=N\O)c2ccc(=O)n(C)c2)c2ccc(Cl)cc2Cl)cc1 (racemic) [Example 476, 4′-[1-(2,4-Dichloro-phenyl)-3-[(E)-hydroxyimino]-3-(1-methyl-6-oxo-1,6-dihydro-pyridin-3-yl)-propyl]-2-methyl-biphenyl-4-carboxylic acid]
166 | Cn1cc(/C(CC(c2ccc(-c3ccc(C(=O)O)c(F)c3)cc2)c2ccc(Cl)cc2Cl)=N/O)ccc1=O (single isomer, unassigned) [Example 475, 4′-[(+)-1-(2,4-dichloro-phenyl)-3-[(E)-hydroxyimino]-3-(1-methyl-6-oxo-1,6-dihydro-pyridin-3-yl)-propyl]-3-fluoro-biphenyl-4-carboxylic acid]
319 | CCS(=O)(=O)c1ccc(C(C/C(=N\O)c2ccc(=O)n(C)c2)c2ccc(Cl)cc2F)cc1 (stereo not shown) [Example 316, (E)-5-(3-(4-Chloro-2-fluorophenyl)-3-(4-(ethylsulfonyl)phenyl)-1-(hydroxyimino)propyl)-1-methylpyridin-2(1H)-one]
